Measurements: publication PMC10460844, “Real‐Time Monitoring of Multitarget Antimicrobial Mechanisms of Peptoids Using Label‐Free Imaging with Optical Diffraction Tomography” (Advanced Science, 2023)
Values after ≈ are worked out from the molar mass of the structure shown. Counter-ions that a name gives are not always drawn. Square brackets hold non-standard residues; d marks the D form. Peptide text beside a SMILES is read from it. Nspe = C[C@H](NCC(=O)O)c1ccccc1; Nlys = NCCCCNCC(=O)O

Columns and labels:
E. coli ATCC 25922 = type: cell-based, Escherichia coli; settings: Table S3, counter-ion exchange series (TFA, HCl, AcOH salts); mean of triplicate
Protocol: (§1) The antibacterial activity of the peptoids was evaluated against gram‐positive (Staphylococcus aureus, ATCC 25 923) and gram‐negative (Escherichia coli, ATCC 25 922) bacteria. […] The MIC of each peptoid was determined using a broth dilution assay. For each assay, the primary culture of either S. aureus or E. coli was grown overnight in cation‐adjusted Mueller Hinton broth 2 (MHB2) media at 37 °C with shaking. A secondary culture was prepared the next day, grown for 3–4 h, and then diluted in MHB2 media with a final concentration of 0.001% acetic acid and 0.02% bovine serum albumin to obtain a calculated optical density (OD) of 0.001. This corresponded to ≈2–5 × 10^5 colony‐forming units (CFU mL^−1) of bacteria. Using 96‐well polypropylene plates (Eppendorf, Hamburg, Germany), 100 µL of 2–5 × 10^5 CFU mL^−1 bacteria were added in triplicate for each peptoid. Each peptoid was assayed at six different concentrations in two‐fold serial dilutions. The maximum peptoid concentration was 25 µM. […] The MIC value determination was performed in triplicate. The MIC was defined as the lowest peptoid concentration that prevented turbidity during visual inspection.

[1] = test system: MRC-5 human lung fibroblast cells; type: cell-based; settings: Table S3, counter-ion exchange series; MTS assay, 24 h
Protocol: 4. Cell culture and cytotoxicity test using MTS assay
(Seoul, South Korea), human keratinocytes (HaCaT) were provided by the Skin Research Institute R&D Center of Amore Pacific Company (Yongin, South Korea). All cells were grown in Dulbecco's modified Eagle’s medium (DMEM) supplemented with 10% fetal bovine serum at 37 °C in an atmosphere containing 5% CO2. The 3-(4,5-dimethylthiazol-2- […]
assays were used to determine the effects of peptoids on cell growth.[4] Aliquots (100 µL) of media containing 1.3×10^4 MRC-5 cells/mL or 3×10^4 HaCaT cells/mL were distributed into each well of a 96-well plate (Eppendorf, Hamburg, Germany). The cells were allowed to attach and were grown in a humidified atmosphere containing 5% CO2 at 37 °C for 24 h.
When the cell density reached approximately 70% confluency, the medium was replaced with serial dilutions of the peptoid stock in DMEM and incubated for an additional 24 h. At this point, 20 µL of the CellTiter 96 aqueous non-radioactive cell proliferation assay reagent (Promega, Madison, WI, USA), which contains the tetrazolium compound, was added to each well. Plates were incubated for 4 h at 37 °C to allow time for metabolism. The MTS-formazan products in viable cells were measured at 490 nm using a microplate reader, and the percentage of cell viability (%) was calculated by comparing readings to the values of untreated wells. Percentage values of cell viability were calculated as A/(A control)×100, where A is the absorbance of the test well and A control is the average absorbance of wells containing untreated cells. […]

rat erythrocytes = test: Hemolysis assay; type: cell-based; settings: Table S3, counter-ion exchange series; for HC10: 10% hemolysis in rat erythrocytes; for HC10 / HC50: mean of triplicate; for HC50: 50% hemolysis in rat erythrocytes; for Hmax (100 µM): hemolysis at 100 µM
In short: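 Washed Sprague-Dawley rat erythrocytes (10% suspension in PBS pH 7.4) mixed with peptoids (0–100 µM), 60 min at 37 °C; supernatant A540 expressed as % of 1% Triton X-100 lysis. HC10/HC50 are concentrations giving 10%/50% hemolysis; Hmax is hemolysis at 100 µM.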

S. aureus ATCC 25923 = type: cell-based, Staphylococcus aureus; settings: Table S3, counter-ion exchange series; mean of triplicate
Protocol: as §1

C[C@@H](c1ccccc1)N(CC(N)=O)C(=O)CN(C(=O)CN(CCCCN)C(=O)CN(C(=O)CN(C(=O)CN(CCCCN)C(=O)CN(C(=O)CN(C(=O)CN(CCCCN)C(=O)CN(C(=O)CN(C(=O)CNCCCCN)[C@@H](C)c1ccccc1)[C@@H](C)c1ccccc1)[C@@H](C)c1ccccc1)[C@@H](C)c1ccccc1)[C@@H](C)c1ccccc1)[C@@H](C)c1ccccc1)[C@@H](C)c1ccccc1 [1-HCl] (H-[Nlys][Nspe][Nspe][Nlys][Nspe][Nspe][Nlys][Nspe][Nspe][Nlys][Nspe][Nspe]-NH2)
MIC E. coli ATCC25922 (E. coli ATCC 25922): 6.3 µM | LC50 MRC-5 [1]: 11.8 µM | HC10 (rat erythrocytes): 27.6 µM | HC50 (rat erythrocytes): 83.3 µM | Hmax (100 µM) (rat erythrocytes): 61.5±0.9% | MIC S. aureus ATCC25923 (S. aureus ATCC 25923): 1.6 µM

C[C@@H](c1ccccc1)N(CC(N)=O)C(=O)CN(C(=O)CN(CCCCN)C(=O)CN(C(=O)CN(C(=O)CN(CCCCN)C(=O)CN(C(=O)CN(C(=O)CN(CCCCN)C(=O)CN(C(=O)CN(C(=O)CNCCCCN)[C@@H](C)c1ccccc1)[C@@H](C)c1ccccc1)[C@@H](C)c1ccccc1)[C@@H](C)c1ccccc1)[C@@H](C)c1ccccc1)[C@@H](C)c1ccccc1)[C@@H](C)c1ccccc1 [1-AcOH] (H-[Nlys][Nspe][Nspe][Nlys][Nspe][Nspe][Nlys][Nspe][Nspe][Nlys][Nspe][Nspe]-NH2)
MIC E. coli ATCC25922 (E. coli ATCC 25922): 12.5 µM | LC50 MRC-5 [1]: 8.6 µM | HC10 (rat erythrocytes): 25.0 µM | HC50 (rat erythrocytes): 78.6 µM | Hmax (100 µM) (rat erythrocytes): 58.2±1.7% | MIC S. aureus ATCC25923 (S. aureus ATCC 25923): 3.1 µM (≈ 5.64 µg/mL)
